According to article PMC3070799 (Neuropharmacology, 2011):
Where two headings read alike, the source gives them in different places.

Legend:
human 5-HT3AB receptors = target: T1, human 5-HT3AB receptors (Homo sapiens, UniProt O95264+P46098); experiment: Two-electrode voltage clamp of 5-HT-induced currents in Xenopus oocytes; format: cell-based
T1 construct: expressed in transfected cells; host or cells: Xenopus laevis oocytes (cRNA from pGEMHE)
T1 sequence (P46098 24-478): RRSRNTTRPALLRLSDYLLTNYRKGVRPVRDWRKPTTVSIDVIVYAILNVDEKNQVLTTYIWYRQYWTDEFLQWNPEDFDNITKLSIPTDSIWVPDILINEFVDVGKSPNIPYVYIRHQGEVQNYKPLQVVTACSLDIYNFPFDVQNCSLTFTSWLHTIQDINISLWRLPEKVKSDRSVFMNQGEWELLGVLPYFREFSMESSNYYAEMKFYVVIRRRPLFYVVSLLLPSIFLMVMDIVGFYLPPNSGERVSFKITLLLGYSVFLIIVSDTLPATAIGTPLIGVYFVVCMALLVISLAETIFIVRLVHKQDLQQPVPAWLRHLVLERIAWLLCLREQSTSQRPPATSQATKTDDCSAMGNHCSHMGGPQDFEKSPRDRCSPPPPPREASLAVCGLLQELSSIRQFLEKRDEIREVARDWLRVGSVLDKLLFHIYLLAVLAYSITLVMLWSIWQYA
T1 sequence (O95264 22-441): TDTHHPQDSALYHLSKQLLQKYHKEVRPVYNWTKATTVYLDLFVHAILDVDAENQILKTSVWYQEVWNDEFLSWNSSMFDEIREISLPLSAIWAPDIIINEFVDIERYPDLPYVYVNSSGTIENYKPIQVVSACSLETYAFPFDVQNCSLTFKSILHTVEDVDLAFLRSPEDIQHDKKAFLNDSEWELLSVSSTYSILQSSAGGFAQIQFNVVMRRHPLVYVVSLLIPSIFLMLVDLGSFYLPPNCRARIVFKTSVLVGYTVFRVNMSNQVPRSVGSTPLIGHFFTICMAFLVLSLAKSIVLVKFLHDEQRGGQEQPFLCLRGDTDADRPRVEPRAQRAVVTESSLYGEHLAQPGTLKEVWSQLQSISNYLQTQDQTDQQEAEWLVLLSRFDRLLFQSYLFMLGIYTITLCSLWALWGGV
Experimental: (§1) Stage V and VI oocytes were injected with 50 nl of ∼300 ng μl^−1 cRNA, and currents were recorded 1–4 days post-injection. A ratio of 1:3 (A:B) was used for the expression of heteromeric 5-HT3 receptors.
(§2) Xenopus laevis oocyte positive females were purchased from NASCO (Fort Atkinson, Wisconsin, USA) and maintained according to standard methods.
(§3) Currents were filtered at a frequency of 1 kHz. Micro-electrodes were fabricated from borosilicate glass (GC120TF-10, Harvard Apparatus, Edenbridge, Kent, UK) using a two stage horizontal pull (P-87, Sutter Instrument Company, California, USA) and filled with 3 M KCl. […] Oocytes were perfused with saline at a rate of 15 ml min^−1. Drug application was via a simple gravity fed system calibrated to run at the same rate. Extracellular saline contained (mM), 96 NaCl, 2 KCl, 1 MgCl2 and 5 mM HEPES; adjusted to pH 7.4 with NaOH.
(§4) Analysis and curve fitting was performed using Prism V3.02 (GraphPad Software, San Diego, California, USA, www.graphpad.com). Concentration-response data for each oocyte was normalised to the maximum current for that oocyte. For inhibition curves, antagonists were routinely co-applied in the presence of agonist. For PXN, oocytes were also pre-treated with the compound for 20 s. A 2 min wash was used between drug applications. The mean and S.E.M. for a series of oocytes was plotted against agonist or antagonist concentration and iteratively fitted (GraphPad Prism v3.02) to the following Hill equation:(1) IA=Imin+Imax−Imin/1+10^nH(logA50−logA) where A is the concentration of ligand present; IA is the current in the presence of ligand concentration A; Imin is the current when A = 0; Imax is the current when A = ∞ , A50 is the concentration of A which evokes a current equal to (Imax + Imin)/2; and nH is the Hill coefficient. Results are presented as mean ± S.E.M.. Statistical analysis was performed using ANOVA in conjunction with a Dunnett’s post-hoc test.

human 5-HT3A receptors = target: T2, human 5-HT3A receptors (Homo sapiens, UniProt P46098); experiment: Two-electrode voltage clamp of 5-HT-induced currents in Xenopus oocytes, incl. co-application; format: cell-based
T2 construct: expressed in transfected cells; host or cells: Xenopus laevis oocytes (cRNA from pGEMHE)
T2 sequence (P46098 24-478): T1 sequence (P46098 24-478)
Experimental: as §1, §2, §3, §4
97) • Scenario 1: Where compounds share a binding site it was assumed that the extent of binding would be determined by a competitive interaction between the compounds such that the proportion of binding sites occupied (Pocc) in the presence of two competing compounds is given by the following expression: (2) Pocc=AKA+BKB/1+AKA+BKB where A and B are the concentrations of two ligands and KA and KB are their affinity constants respectively.
In each individual experiment, for each combination of inhibitors, data values were obtained for IA, IB and IAB. From IA and IB predicted values of IAB1 and IAB2 were also derived. A two-way ANOVA was performed on values of IAB, IAB1 and IAB2 in which the distinction between IAB, IAB1 and IAB2 was treated as a fixed factor and the variation in levels of inhibition between experiments was treated as a random factor. Where the ANOVA indicated a significant difference (P < 0.05) between IAB, IAB1 and IAB2 a post-hoc analysis was carried out using the Waller–Duncan method to identify homogenous subsets with a significance level of 0.05 and a Type I /Type II error ratio if 100.
Our models were based on the following assumptions: 1. that the channel blocking compounds only effect the response that is seen when the channel is open. […] In the case of condition 5 it is possible that the binding of one compound may prevent access of another to its own site. However, in practice this will not influence the analysis since the functional consequence of the binding of both compounds compared to one will be the same, namely complete channel blockade.

glycine α1 receptors = target: glycine α1 receptors; set-up: method as in Yang et al., 2007; details: ref Yang et al., 2007; cited from earlier work
glycine α1β receptors = target: glycine α1β receptors; set-up: method as in Yang et al., 2007; details: ref Yang et al., 2007; cited from earlier work
[1] = abstract, 5-HT-induced responses, Xenopus oocytes, read-out: IC50
[2] = read-out: inhibition at the highest concentration used

Compound | IC50 (human 5-HT3AB receptors; [1]) | IC50 (human 5-HT3AB receptors; inhibition of 5-HT EC50 response (28 μM 5-HT), oocytes, read-out: IC50) | inhibition at 1000 µM (human 5-HT3AB receptors; [2]) | inhibition (in words) (human 5-HT3A receptors; 1 mM, seen in the 5-HT3A receptor only) | IC50 (human 5-HT3A receptors; [1]) | IC50 (human 5-HT3A receptors; inhibition of 5-HT EC50 response (1.7 μM 5-HT), oocytes, read-out: IC50) | inhibition at 1000 µM (human 5-HT3A receptors; [2]) | IC50 (glycine α1 receptors) | IC50 (human 5-HT3AB receptors; IC50, inhibition of 5-HT EC50 response (28 μM 5-HT), oocytes) | Hill slope (human 5-HT3AB receptors; concentration-inhibition curve, 28 μM 5-HT) | IC50 (human 5-HT3AB receptors; pIC50, inhibition of 5-HT EC50 response (28 μM 5-HT), oocytes) | IC50 (human 5-HT3A receptors) | ratio of current amplitudes at +40 mV relative to −40 mV (voltage-dependence) (human 5-HT3A receptors; compared with absence of antagonist, Fig. 2E) | Hill slope (human 5-HT3A receptors; concentration-inhibition curve, 1.7 μM 5-HT) | IC50 (glycine α1β receptors)
C[C@@H]1C(=O)O[C@H]2C[C@@]34[C@H]5C[C@@H](C(C)(C)C)[C@]36[C@@H](OC(=O)[C@@H]6O)O[C@@]4(C(=O)O5)[C@]21O [GA, ginkgolide A] | > 1000 µM | > 1000 µM | ≤ 50% | minimal inhibition | > 1000 µM | > 1000 µM | ≤ 50% |  |  |  |  |  |  |  | 
CC(C)(O)[C@@H]1[C@H]2OC(=O)[C@@H]1[C@]1(O)C[C@H]3O[C@]34C(=O)O[C@H]2[C@]14C [PTN, picrotin] |  |  |  |  |  |  |  | ~5 µM | 2900 µM | 0.99 ± 0.07 | 2950 µM | 470 µM | unaltered | 1.33 ± 0.15 | ~30 µM
